Measurements published in EPA's ToxRefDB 2.

Experiments:
[1] = tested on: rat; conditions: Subchronic oral toxicity in rodents, sprague dawley, Feed, dose end: 28 day, group: systemic
[2] = tested on: rabbit; conditions: Prenatal developmental toxicity study, other, Oral, Gavage/Intubation, dose end: 19 GD
[3] = tested on: dog; conditions: Subchronic oral toxicity in nonrodent, beagle, Feed, dose end: 28 day, group: systemic, systemic / in life observation / food consumption / food consumption + systemic / in life observation / body weight / body weight + systemic…
[4] = tested on: rat; conditions: Prenatal developmental toxicity study, other, Oral, Gavage/Intubation, dose end: 15 GD
[5] = tested on: rabbit; conditions: Prenatal developmental toxicity study, himalayan, Oral, Gavage/Intubation, dose end: 19 GD
[6] = tested on: rat; conditions: Subchronic dermal toxicity, sprague dawley, Topical, dose end: 28 day, group: systemic, systemic / clinical chemistry / alkaline phosphatase (alp/alk) / alkaline phosphatase (alp/alk) + systemic / clinical chemistry / glucose / …
[7] = tested on: rat; conditions: Combined chronic toxicity/carcinogenicity; sprague dawley; Oral; Feed; dose end: 24 month; group: systemic; systemic / pathology microscopic / kidney / infiltration cellular + systemic / pathology microscopic / kidney / nephropathy
[8] = tested on: rat; conditions: Subchronic oral toxicity in rodents, sprague dawley, Gavage/Intubation, dose end: 28 day, group: systemic
[9] = tested on: mouse; conditions: Other (NonGuideline or Guideline Not Listed), Oral, Feed, dose end: 59 day, group: cannot be grouped
[10] = tested on: rat; conditions: Prenatal developmental toxicity study, other, Oral, Gavage/Intubation, dose end: 15 GD; remark: listed apart in the source
[11] = tested on: dog; conditions: Chronic toxicity; beagle; Oral; Feed; dose end: 52 week; group: systemic; systemic / clinical chemistry / creatinine / creatinine + systemic / clinical chemistry / urea nitrogen / urea + systemic / pathology …
[12] = tested on: rat; conditions: Subchronic oral toxicity in rodents, sprague dawley, Feed, dose end: 3 month, group: systemic
[13] = tested on: mouse; conditions: Carcinogenicity, other, Oral, Feed, dose end: 78 week, group: systemic
[14] = tested on: dog; conditions: Subchronic oral toxicity in nonrodent, beagle, Feed, dose end: 13 week, group: systemic, systemic / clinical chemistry / alanine aminotransferase (alt/sgpt) / alanine aminotransferase (alt/sgpt) + systemic / clinical chemistry / …
[15] = tested on: mouse; conditions: Subchronic oral toxicity in rodents, other, Feed, dose end: 13 week, group: systemic
[16] = systemic / pathology microscopic / kidney / [other] + systemic / pathology microscopic / kidney / dilatation + systemic / pathology …
[17] = systemic / pathology microscopic / kidney / proliferation
[18] = group: developmental, systemic / in life observation / body weight / fetal weight
[19] = group: maternal, systemic / in life observation / body weight / body weight gain + systemic / in life observation / food consumption / food consumption
[20] = group: maternal, systemic / in life observation / body weight / body weight gain + systemic / in life observation / food consumption / food consumption + …
[21] = group: maternal, systemic / in life observation / body weight / body weight gain + systemic / in life observation / body weight / body weight + systemic / in…
[22] = group: developmental, developmental / developmental malformation / bone / fused + developmental / developmental malformation / bone / misshapen + developmental / …
[23] = group: maternal, systemic / in life observation / food consumption / food consumption + reproductive / reproductive performance / postimplantation loss / …
[24] = systemic / pathology microscopic / kidney / dilatation + systemic / pathology microscopic / adrenal gland / fatty change + systemic / in …
[25] = systemic / pathology microscopic / liver / proliferation + systemic / organ weight / liver / absolute + systemic / organ weight / liver / …
[26] = group: developmental, developmental / developmental malformation / bone / incomplete ossification + developmental / developmental malformation / bone / irregular …
[27] = group: maternal, systemic / in life observation / body weight / body weight + systemic / in life observation / body weight / body weight gain + systemic / in…
[28] = systemic / pathology microscopic / kidney / hyalinization + systemic / pathology microscopic / kidney / lesion(s) (nos)
[29] = systemic / pathology microscopic / kidney / hyalinization + systemic / pathology microscopic / kidney / lesion(s) (nos) + systemic / …
[30] = systemic / pathology microscopic / liver / hypertrophy + systemic / pathology microscopic / liver / infiltration cellular + systemic / …
[31] = systemic / pathology microscopic / liver / hypertrophy
[32] = systemic / pathology microscopic / liver / hypertrophy + systemic / hematology / anemia / anemia - nos + systemic / hematology / erythrocyte…

CN1COCN(Cc2cnc(Cl)s2)/C1=N/[N+](=O)[O-] [Thiamethoxam]
LOAEL [1, 16]: 81.7 mg/kg/day | NOAEL [1, 16]: 8.04 mg/kg/day | LEL [1, 17]: 8.04 mg/kg/day | NEL [1, 17]: < 8.04 mg/kg/day | LEL [2, 18]: 150 mg/kg/day | LOAEL [2, 18]: 150 mg/kg/day | NEL [2, 18]: 50 mg/kg/day | NOAEL [2, 18]: 50 mg/kg/day | LEL [2, 19]: 50 mg/kg/day | LOAEL [2, 19]: 50 mg/kg/day | NEL [2, 20]: 10 mg/kg/day | NOAEL [2, 20]: 10 mg/kg/day | LEL [3]: 43 mg/kg/day | LOAEL [3]: 43 mg/kg/day | NEL [3]: 32.6 mg/kg/day | NOAEL [3]: 32.6 mg/kg/day | LEL [4, 18]: 1000 mg/kg/day | LOAEL [4, 18]: 1000 mg/kg/day | NEL [4, 18]: 500 mg/kg/day | NOAEL [4, 18]: 500 mg/kg/day | LOAEL ([4]; group: maternal, systemic / in life observation / body weight / body weight gain): 500 mg/kg/day | LEL [4, 21]: 500 mg/kg/day | NEL [4, 21]: 100 mg/kg/day | NOAEL [4, 21]: 100 mg/kg/day | LEL [5, 22]: 150 mg/kg/day | LOAEL [5, 22]: 150 mg/kg/day | NEL [5, 22]: 50 mg/kg/day | NOAEL [5, 22]: 50 mg/kg/day | LEL ([5]; group: maternal, systemic / in life observation / food consumption / food consumption): 50 mg/kg/day | LOAEL [5, 23]: 150 mg/kg/day | NEL [5, 23]: 15 mg/kg/day | NOAEL [5, 23]: 50 mg/kg/day | LEL [6]: 250 mg/kg/day | LOAEL [6]: 250 mg/kg/day | NEL [6]: 60 mg/kg/day | NOAEL [6]: 60 mg/kg/day | LEL [7]: 63 mg/kg/day | LOAEL [7]: 63 mg/kg/day | NEL [7]: 21 mg/kg/day | NOAEL [7]: 21 mg/kg/day | LOAEL ([8]; systemic / pathology microscopic / kidney / dilatation + systemic / pathology microscopic / adrenal gland / fatty change): 300 mg/kg/day | NEL [8, 24]: 100 mg/kg/day | NOAEL [8, 24]: 100 mg/kg/day | LEL ([8]; systemic / pathology microscopic / kidney / dilatation + systemic / pathology microscopic / adrenal gland / fatty change + systemic / …): 300 mg/kg/day | LEL ([9]; systemic / pathology microscopic / liver / proliferation): 72 mg/kg/day | LOAEL [9, 25]: > 386 mg/kg/day | NEL [9, 25]: 16 mg/kg/day | NOAEL [9, 25]: ≥ 386 mg/kg/day | LOAEL [10, 26]: 750 mg/kg/day | NEL [10, 26]: 30 mg/kg/day | NOAEL [10, 26]: 200 mg/kg/day | LEL ([10]; group: developmental, developmental / developmental malformation / bone / incomplete ossification + developmental / developmental malformation / bone / short …): 200 mg/kg/day | LEL [10, 27]: 200 mg/kg/day | LOAEL [10, 27]: 200 mg/kg/day | NEL [10, 27]: 30 mg/kg/day | NOAEL [10, 27]: 30 mg/kg/day | LEL [11]: 21 mg/kg/day | LOAEL [11]: 21 mg/kg/day | NEL [11]: 4.05 mg/kg/day | NOAEL [11]: 4.05 mg/kg/day | LEL [12, 28]: 17.6 mg/kg/day | LOAEL [12, 28]: 17.6 mg/kg/day | NEL [12, 29]: 1.74 mg/kg/day | NOAEL [12, 29]: 1.74 mg/kg/day | NEL ([13]; systemic / organ weight / liver / relative to body weight + systemic / pathology microscopic / liver / hypertrophy + systemic / pathology …): 479 mg/kg/day | LOAEL [13, 30]: 63.8 mg/kg/day | NOAEL [13, 30]: 2.63 mg/kg/day | LEL [14]: 32 mg/kg/day | LOAEL [14]: 32 mg/kg/day | NEL [14]: 8.23 mg/kg/day | NOAEL [14]: 8.23 mg/kg/day | LEL [15, 31]: 14.3 mg/kg/day | LOAEL [15, 31]: 14.3 mg/kg/day | NEL [15, 32]: 1.41 mg/kg/day | NOAEL [15, 32]: 1.41 mg/kg/day
